Laboratory results taken from US11613546B2, “Substituted pyridotriazine compounds and uses thereof” (Gilead Sciences, Inc., priority 2021, dated 2023).
Read-outs that look alike come from different tables or passages of the source. Values belong to the molecule of their own block, whether it stands above or below them.

Experiments:
[1] = Monkey PK after single-dose intravenous infusion; format: in vivo, monkeys; conditions: for half-life: cynomolgus, monkeys, single-dose intravenous infusion for 30 minutes, plasma, read-out: Cyno half-life (converted)
Procedure: Test compound PK was determined in monkeys (Labcorp, Madison, Wis.) following a single-dose intravenous infusion for 30 minutes. The dosing vehicle was 10% N-methylpyrrolidone; 50% polyethylene glycol 300 and 40% water (pH 8.3) for intravenous administration in monkeys. Serial blood samples were collected at predose, 0.25, 0.48 (before end of infusion), 0.58, 0.75, 1, 1.5, 2, 4, 8, 12, 24, 48, 72, 96, 120, 144, and 168 hours postdose (based on start of infusion) and plasma test compound concentrations were quantified using an LC-MS/MS method.
Nonclinical plasma samples were prepared by addition of 200 μl cold acetonitrile/internal standard solution to 96-well plates containing 50 μl aliquots of each plasma sample. After protein precipitation, each of the supernatants (50 μl) were transferred to clean 96-well plates and diluted with 450 μl of water. The sample injection volume was 2 μl. Samples were analyzed by a multiple reaction monitoring LC-MS/MS method. LC-MS system consisted of a Cohesive LX-2 multiplex with two identical DIONEX UltiMate 3000 RS pumps, Hypersil Gold C18 HPLC column (50×2.1 mm, […]; Thermo Fisher Scientific), and the ABSciex QTRAP5500 Mass Spectrometer LC-MS/MS system. Chromatography was performed using 0.1% formic acid and 1% isopropyl alcohol in aqueous solution (MP A), and 0.1% formic acid and 1% isopropyl alcohol in acetonitrile (MP B).
Plasma PK parameters for test compounds in monkeys were estimated via noncompartmental analysis using the software program Phoenix WinNonlin, version 6.3 (Pharsight Corporation, Mountain View, Calif.). The following plasma PK parameters were estimated in nonclinical species (as appropriate): observed peak plasma concentration (Cmax), time to reach Cmax (Tmax), last quantifiable plasma concentration (Clast), tin, time of Clast (Tlast), area under the plasma concentration-time curve (AUC) from time 0 to Clast (AUClast), AUC from time 0 to infinity (AUCinf), CL, mean residence time (MRT), and volume of distribution at steady state (Vss).

[2] = system: pLai RLuc reporter virus; assay: HIV MT-4 serum shift antiviral reporter assay; format: cell-based
Procedure, shortened: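 MT-4 cells pre-infected with pLai RLuc virus for 2 h at 37 °C, then incubated 72 h at 37 °C with compound in medium (RPMI, 10% FBS) with or without 50% human serum; Renilla luminescence read. EC50 from sigmoidal fit; serum shift = EC50(HS/CCM)/EC50(CCM).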

[3] = system: HIV-1 (IIIB); assay: Antiviral assay in MT-4 cells; format: cell-based; conditions: HIV-1 IIIB infected MT-4 cells, 5 days, Cell Titer Glo, read-out: MT4 EC50
Procedure, shortened: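 MT-4 cells infected with a 1:250 dilution of HIV-1 IIIB stock were incubated with serially diluted (1:3) compound for 5 days at 37 °C. Viability read by Cell Titer Glo luminescence; EC50 is the concentration giving 50% decrease in signal, from sigmoidal dose-response fits.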

[4] = Cytotoxicity assay in MT-4 cells; format: cell-based; conditions: human, uninfected MT-4 cells, 5 days, Cell Titer Glo; read-out: CC50
Procedure, shortened: (§1)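 Uninfected MT-4 cells were incubated with 1:3 serially diluted compound in RPMI/10% FBS for 5 days at 37° C. Viability was read by CellTiter-Glo luminescence, with 10 μM puromycin as the baseline cytotoxicity control. Values are the concentration giving a 50% decrease in luminescence, from sigmoidal dose-response fits.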

[5] = system: MT-4 cells; assay: Cytotoxicity assay in MT-4 cells; format: cell-based
Procedure, shortened: as §1

[6] = Human immunodeficiency virus 1, 72 h, read-out: RLUC CCM (nM), cell culture media (RPMI, 10% FBS), 72 h, Renilla Glo
[7] = read-out: RLUC 50% HS, HS/CCM: 50% human serum, 72 h, Renilla Glo
[8] = Human immunodeficiency virus 1, 72 h, read-out: RLUC 50% HS (nM), HS/CCM: 50% human serum, 72 h, Renilla Glo
[9] = Human immunodeficiency virus 1, IIIB, MT4, 120 h
[10] = HS/CCM: 50% human serum, 72 h, Renilla Glo, read-out: RLUC 50% HS
[11] = cell culture media (RPMI, 10% FBS), 72 h, Renilla Glo, read-out: RLUC CCM
[12] = uninfected MT-4 cells, 5 days, Cell Titer Glo, read-out: CC50

Structure (SMILES): C[C@H]1C=C[C@H](C)N2CN1C(=O)c1c(O)c(=O)c(C(=O)NCc3c(F)cc(F)cc3F)cn12 [Example C25, (1S,2S,5S)-8-hydroxy-2,5-dimethyl-7,9-dioxo-N-(2,4,6-trifluorobenzyl)-2,5,7,9-tetrahydro-1,6-methanopyrido[1,2-b][1,2,5]triazonine-10-carboxamide]
half-life [1]: 55 h | EC50 [2, 6]: 0.47 nM | EC50 [2, 7]: 68 nM | EC50 [3]: 1 nM | CC50 at 5 days [4]: 17400 nM

Structure (SMILES): CC[C@@H]1C=C[C@H](C)N2CN1n1cc(C(=O)NCc3c(F)cc(F)cc3F)c(=O)c(O)c1C2=O [Example C72, (1S,2R,5S)-2-ethyl-8-hydroxy-5-methyl-7,9-dioxo-N-(2,4,6-trifluorobenzyl)-2,5,7,9-tetrahydro-1,6-methanopyrido[1,2-b][1,2,5]triazonine-10-carboxamide]
half-life [1]: 51 h | EC50 [2, 8]: 251 nM | EC50 [2, 6]: 0.33 nM | EC50 [3, 9]: 0.5 nM | CC50 at 5 days [4]: 13800 nM

Structure (SMILES): C[C@H]1C=C[C@H](C)N2CN1C(=O)c1c(O)c(=O)c(C(=O)NCc3ccc(F)cc3F)cn12 [Example C30, (1S,2S,5S)-8-hydroxy-2,5-dimethyl-7,9-dioxo-N-(2,4-difluorobenzyl)-2,5,7,9-tetrahydro-1,6-methanopyrido[1,2-b][1,2,5]triazonine-10-carboxamide]
half-life [1]: 6 h | EC50 [2, 8]: 29 nM | EC50 [2, 6]: 0.32 nM | EC50 [3, 9]: 1.3 nM | CC50 at 5 days [4]: 35800 nM

Structure (SMILES): C[C@@H]1C=C[C@H](C)N2CN1n1cc(C(=O)NCc3ccc(F)cc3F)c(=O)c(O)c1C2=O [Example C29, (1S,2R,5S)—N-(2,4-difluorobenzyl)-8-hydroxy-2,5-dimethyl-7,9-dioxo-2,5,7,9-tetrahydro-1,6-methanopyrido[1,2-b][1,2,5]triazonine-10-carboxamide]
half-life [1]: 32 h | EC50 [2, 8]: 169 nM | EC50 [2, 6]: 0.31 nM | EC50 [3, 9]: 0.71 nM | CC50 at 5 days [4]: 18700 nM

Structure (SMILES): C[C@H]1CC[C@H](C)N2CN1C(=O)c1c(O)c(=O)c(C(=O)NCc3c(F)cc(F)cc3F)cn12 [Example C27, (1S,2R,5S)-8-hydroxy-2,5-dimethyl-7,9-dioxo-N-(2,4,6-trifluorobenzyl)-2,3,4,5,7,9-hexahydro-1,6-methanopyrido[1,2-b][1,2,5]triazonine-10-carboxamide]
half-life [1]: 48 h | EC50 [2, 6]: 0.55 nM | EC50 [2, 7]: 594 nM | EC50 [3, 9]: 1.3 nM | CC50 at 5 days [4]: 9550 nM

Structure (SMILES): C[C@H]1C=C[C@@H](CF)N2CN1C(=O)c1c(O)c(=O)c(C(=O)NCc3c(F)cc(F)cc3F)cn12 [Example C76, (1S,2S,5S)-2-(fluoromethyl)-8-hydroxy-5-methyl-7,9-dioxo-N-(2,4,6-trifluorobenzyl)-2,5,7,9-tetrahydro-1,6-methanopyrido[1,2-b][1,2,5]triazonine-10-carboxamide]
half-life [1]: 60 h | EC50 [2, 8]: 265 nM | EC50 [2, 6]: 0.42 nM | EC50 [3, 9]: 1 nM | CC50 at 5 days [4]: 16400 nM

Structure (SMILES): C[C@H]1CC[C@H](C)N2CN1C(=O)c1c(O)c(=O)c(C(=O)NCc3ccc(F)cc3F)cn12 [Example C31, (1S,2S,5S)—N-(2,4-difluorobenzyl)-8-hydroxy-2,5-dimethyl-7,9-dioxo-2,3,4,5,7,9-hexahydro-1,6-methanopyrido[1,2-b][1,2,5]triazonine-10-carboxamide]
half-life [1]: 9 h | EC50 [2, 8]: 328 nM | EC50 [2, 6]: 0.41 nM | EC50 [3, 9]: 0.9 nM | CC50 at 5 days [4]: 7850 nM

Structure (SMILES): C[C@@H]1CC[C@H](C)N2CN1n1cc(C(=O)NCc3ccc(F)cc3F)c(=O)c(O)c1C2=O [Example C37, (1S,2R,5S)—N-(2,4-difluorobenzyl)-8-hydroxy-2,5-dimethyl-7,9-dioxo-2,3,4,5,7,9-hexahydro-1,6-methanopyrido[1,2-b][1,2,5]triazonine-10-carboxamide]
half-life [1]: 22 h | EC50 [2, 8]: 325 nM | EC50 [2, 6]: 0.87 nM | EC50 [3, 9]: 1.3 nM | CC50 at 5 days [4]: 8570 nM

half-life [1]: 110 h
Structure (SMILES): C[C@@H]1C=C[C@H](C)N2CN1n1cc(C(=O)NCc3ccc(F)c(Cl)c3F)c(=O)c(O)c1C2=O [Example C63, (1S,2R,5S)—N-(3-chloro-2,4-difluorobenzyl)-8-hydroxy-2,5-dimethyl-7,9-dioxo-2,5,7,9-tetrahydro-1,6-methanopyrido[1,2-b][1,2,5]triazonine-10-carboxamide]

Structure (SMILES): O=C(NCc1c(F)cc(F)cc1F)c1cn2c(c(O)c1=O)C(=O)N1CCCCN2C1 [Example C109, (1S)-8-hydroxy-7,9-dioxo-N-(2,4,6-trifluorobenzyl)-2,3,4,5,7,9-hexahydro-1,6-methanopyrido[1,2-b][1,2,5]triazonine-10-carboxamide]
Cyno half-life ([1]; in vivo, iv): 4.7 h | EC50 [2, 10]: 11.4 nM | EC50 [2, 11]: 0.62 nM | EC50 [3]: 1.2 nM | CC50 [5]: 15200 nM

half-life [1]: 29 h | EC50 [3, 9]: 1.2 nM
Structure (SMILES): C[C@H]1C=C[C@@H](CF)N2CN1C(=O)c1c(O)c(=O)c(C(=O)NCc3ccc(F)cc3F)cn12 [Example C44, (2S,5S)—N-(2,4-difluorobenzyl)-2-(fluoromethyl)-8-hydroxy-5-methyl-7,9-dioxo-2,5,7,9-tetrahydro-1,6-methanopyrido[1,2-b][1,2,5]triazonine-10-carboxamide]
CC50 at 5 days [4]: 15000 nM

Structure (SMILES): C[C@H]1CCC[C@H](C)N2CN1C(=O)c1c(O)c(=O)c(C(=O)NCc3c(F)cc(F)cc3F)cn12 [Example C23, (1S,2S,6S)-9-hydroxy-2,6-dimethyl-8,10-dioxo-N-(2,4,6-trifluorobenzyl)-3,4,5,6,8,10-hexahydro-2H-1,7-methanopyrido[1,2-b][1,2,5]triazecine-11-carboxamide]
EC50 [2, 8]: 14.5 nM | EC50 [2, 6]: 0.29 nM | EC50 [3, 9]: 2.5 nM | CC50 [5, 12]: 50000 nM

Structure (SMILES): C[C@@H]1C=C[C@H](C)N2CN1n1cc(C(=O)NCc3c(F)cc(F)cc3F)c(=O)c(O)c1C2=O [Example C24, (1S,2R,5S)-8-hydroxy-2,5-dimethyl-7,9-dioxo-N-(2,4,6-trifluorobenzyl)-2,5,7,9-tetrahydro-1,6-methanopyrido[1,2-b][1,2,5]triazonine-10-carboxamide]
half-life [1]: 57 h | EC50 [2, 8]: 328 nM | EC50 [2, 6]: 0.44 nM | EC50 [3, 9]: 0.98 nM | CC50 at 5 days [4]: 11400 nM

Structure (SMILES): CO[C@@H]1C=C[C@H](C)N2CN1n1cc(C(=O)NCc3c(F)cc(F)cc3F)c(=O)c(O)c1C2=O [Example C46, (1R,2R,5S)-8-hydroxy-2-methoxy-5-methyl-7,9-dioxo-N-(2,4,6-trifluorobenzyl)-2,5,7,9-tetrahydro-1,6-methanopyrido[1,2-b][1,2,5]triazonine-10-carboxamide]
EC50 [2, 10]: 468 nM | EC50 [2, 11]: 0.44 nM | EC50 [3]: 1.6 nM | CC50 [5, 12]: 27000 nM
